Active and inactive are the calls of the source. No cut-off for these calls is given here.
Tests used:
Cardiac muscle cell [1] = assay: Cytoprotective effect in rat cardiomyocytes under hypoxia-reoxygenation condition assessed as cell viability at 1 uM by trypan blue exclusion test; type: functional, cell-based
Cardiac muscle cell [2] = assay: Cytoprotective effect in rat cardiomyocytes under hypoxia-reoxygenation condition assessed as cell viability at 1 uM by trypan blue exclusion test in presence of etomoxir; type: functional, cell-based

SMILES | Activity (Cardiac muscle cell [1]) | Activity (Cardiac muscle cell [2])
Cn1ccnc1SCCC(=O)O | Active | inactive
Cn1ccnc1S | inactive | 
Cc1cccc(C)c1OCCC(=O)O | Active | inactive
Cn1ccnc1SCCCCC(=O)O | Active | inactive
Cc1cccc(C)c1O/C=C/C(=O)O | Active | inactive
